Here are results for seven molecules from ChEMBL document CHEMBL1150976, “The selectivity of protein kinase inhibitors: a further update” (Biochem J, 2007).

Assay [1] addresses Serine/threonine-protein kinase pim-2 (Homo sapiens, UniProt Q9P1W9). In words: Percentage PIM2 activity remaining in the presence of 0.1uM inhibitor.
Assay [2] deals with Ribosomal protein S6 kinase alpha-5 (Homo sapiens) (UniProt O75582). In words: Percentage MSK1 activity remaining in the presence of 0.1uM inhibitor.
Assay [3] addresses Serine/threonine-protein kinase Nek7 (Homo sapiens) (UniProt Q8TDX7). In words: Percentage NEK7 activity remaining in the presence of 0.1uM inhibitor.
The target of assay [4] is T1, Inhibitor of nuclear factor kappa-B kinase subunit beta (Homo sapiens) (UniProt O14920).
T1 sequence (whole entry): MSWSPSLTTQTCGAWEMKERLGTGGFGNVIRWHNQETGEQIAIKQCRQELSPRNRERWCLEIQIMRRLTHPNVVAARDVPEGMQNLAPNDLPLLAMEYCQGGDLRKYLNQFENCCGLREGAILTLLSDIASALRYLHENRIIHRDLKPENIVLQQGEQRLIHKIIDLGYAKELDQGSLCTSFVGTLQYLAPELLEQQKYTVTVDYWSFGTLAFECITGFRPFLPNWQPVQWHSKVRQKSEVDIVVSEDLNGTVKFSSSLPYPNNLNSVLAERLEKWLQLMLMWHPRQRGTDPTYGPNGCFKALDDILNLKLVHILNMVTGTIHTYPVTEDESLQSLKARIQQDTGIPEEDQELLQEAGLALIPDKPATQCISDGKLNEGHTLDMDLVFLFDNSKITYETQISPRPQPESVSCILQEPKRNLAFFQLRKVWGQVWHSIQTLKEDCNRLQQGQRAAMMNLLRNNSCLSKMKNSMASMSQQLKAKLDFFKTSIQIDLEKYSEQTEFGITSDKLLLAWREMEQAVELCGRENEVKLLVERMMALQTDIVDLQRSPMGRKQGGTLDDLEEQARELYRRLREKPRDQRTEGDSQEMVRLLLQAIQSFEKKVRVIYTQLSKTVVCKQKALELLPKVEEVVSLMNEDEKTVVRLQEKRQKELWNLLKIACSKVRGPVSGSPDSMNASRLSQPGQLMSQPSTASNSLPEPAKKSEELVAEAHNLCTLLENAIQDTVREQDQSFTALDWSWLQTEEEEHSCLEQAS
Briefly: Percentage IKK-beta activity remaining in the presence of 0.1uM inhibitor.

The target in assay [5] is Proto-oncogene tyrosine-protein kinase Src (Gallus gallus) (UniProt P00523). In words: Percentage Src activity remaining in the presence of 0.1uM inhibitor.
Assay [6] concerns the target SRSF protein kinase 1 (Homo sapiens) (UniProt Q96SB4). Briefly: Percentage SRPK1 activity remaining in the presence of 0.1uM inhibitor.
Assay [7] deals with Serine/threonine-protein kinase Chk2 (Homo sapiens) (UniProt O96017). Briefly: Percentage CHK2 activity remaining in the presence of 0.1uM inhibitor.
Serine/threonine-protein kinase Chk2 (Homo sapiens), sequence (O96017 whole entry): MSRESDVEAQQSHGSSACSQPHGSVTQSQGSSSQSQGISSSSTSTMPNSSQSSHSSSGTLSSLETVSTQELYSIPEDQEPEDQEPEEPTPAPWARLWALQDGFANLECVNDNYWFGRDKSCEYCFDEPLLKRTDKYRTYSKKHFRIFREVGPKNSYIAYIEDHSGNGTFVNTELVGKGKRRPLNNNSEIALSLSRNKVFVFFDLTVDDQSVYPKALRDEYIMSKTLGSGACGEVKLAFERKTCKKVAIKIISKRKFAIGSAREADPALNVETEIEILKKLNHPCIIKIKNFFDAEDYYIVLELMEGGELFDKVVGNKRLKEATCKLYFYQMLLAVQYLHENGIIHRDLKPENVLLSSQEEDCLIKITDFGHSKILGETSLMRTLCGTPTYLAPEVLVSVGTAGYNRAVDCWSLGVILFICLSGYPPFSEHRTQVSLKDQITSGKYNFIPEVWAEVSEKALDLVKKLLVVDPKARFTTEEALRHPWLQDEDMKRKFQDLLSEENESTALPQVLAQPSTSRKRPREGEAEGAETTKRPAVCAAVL
Assay [8] addresses Mitogen-activated protein kinase 1 (Homo sapiens) (UniProt P28482). Briefly: Percentage ERK2 activity remaining in the presence of 0.1uM inhibitor.
The target in a further assay is Aurora kinase B (Homo sapiens, UniProt Q96GD4). Briefly: Percentage Aurora B activity remaining in the presence of 0.1uM inhibitor.
Aurora kinase B, sequence (Q96GD4 whole entry): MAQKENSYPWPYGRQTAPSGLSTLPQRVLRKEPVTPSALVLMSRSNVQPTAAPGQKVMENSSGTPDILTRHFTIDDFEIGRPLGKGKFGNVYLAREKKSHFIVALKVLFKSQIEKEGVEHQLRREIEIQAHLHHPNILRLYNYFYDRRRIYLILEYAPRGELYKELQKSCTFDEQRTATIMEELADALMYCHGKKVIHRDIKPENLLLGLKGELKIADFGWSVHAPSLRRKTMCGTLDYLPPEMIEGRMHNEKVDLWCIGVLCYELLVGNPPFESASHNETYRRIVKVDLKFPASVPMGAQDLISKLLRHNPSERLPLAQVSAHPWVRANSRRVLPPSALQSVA
The target in assay [9] is T2, Aurora kinase C (Homo sapiens) (UniProt Q9UQB9).
T2 sequence (whole entry): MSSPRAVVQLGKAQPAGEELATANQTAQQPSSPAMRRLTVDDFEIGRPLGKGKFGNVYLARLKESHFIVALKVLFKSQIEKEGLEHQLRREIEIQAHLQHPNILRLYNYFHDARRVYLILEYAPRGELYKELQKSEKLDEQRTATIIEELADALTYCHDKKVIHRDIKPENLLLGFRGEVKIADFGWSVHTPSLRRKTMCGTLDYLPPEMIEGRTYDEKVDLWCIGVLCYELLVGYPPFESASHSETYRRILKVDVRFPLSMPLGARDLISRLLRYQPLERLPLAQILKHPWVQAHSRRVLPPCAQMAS
In words: Percentage Aurora C activity remaining in the presence of 0.1uM inhibitor.

The target in assay [10] is T3, Serine/threonine-protein kinase 3 (Homo sapiens) (UniProt Q13188).
T3 sequence (whole entry): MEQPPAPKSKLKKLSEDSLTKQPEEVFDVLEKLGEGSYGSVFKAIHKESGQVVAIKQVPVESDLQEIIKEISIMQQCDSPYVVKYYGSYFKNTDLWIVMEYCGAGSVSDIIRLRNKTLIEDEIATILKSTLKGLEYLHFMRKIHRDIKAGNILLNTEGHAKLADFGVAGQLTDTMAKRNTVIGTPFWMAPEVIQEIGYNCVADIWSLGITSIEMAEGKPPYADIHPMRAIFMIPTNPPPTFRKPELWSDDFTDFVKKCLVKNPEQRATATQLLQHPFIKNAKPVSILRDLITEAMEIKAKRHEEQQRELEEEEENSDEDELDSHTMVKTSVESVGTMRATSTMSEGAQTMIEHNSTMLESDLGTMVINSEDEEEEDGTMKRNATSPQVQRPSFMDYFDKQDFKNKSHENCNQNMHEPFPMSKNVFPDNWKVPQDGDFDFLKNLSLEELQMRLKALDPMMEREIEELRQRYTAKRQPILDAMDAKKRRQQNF
Briefly: Percentage MST2 activity remaining in the presence of 0.1uM inhibitor.

For assay [11], the target named is Calcium/calmodulin-dependent protein kinase kinase 1 (Homo sapiens) (UniProt Q8N5S9). In words: Percentage CaMKKalpha activity remaining in the presence of 0.1uM inhibitor.
Calcium/calmodulin-dependent protein kinase kinase 1 (Homo sapiens), sequence (Q8N5S9 whole entry, looked up): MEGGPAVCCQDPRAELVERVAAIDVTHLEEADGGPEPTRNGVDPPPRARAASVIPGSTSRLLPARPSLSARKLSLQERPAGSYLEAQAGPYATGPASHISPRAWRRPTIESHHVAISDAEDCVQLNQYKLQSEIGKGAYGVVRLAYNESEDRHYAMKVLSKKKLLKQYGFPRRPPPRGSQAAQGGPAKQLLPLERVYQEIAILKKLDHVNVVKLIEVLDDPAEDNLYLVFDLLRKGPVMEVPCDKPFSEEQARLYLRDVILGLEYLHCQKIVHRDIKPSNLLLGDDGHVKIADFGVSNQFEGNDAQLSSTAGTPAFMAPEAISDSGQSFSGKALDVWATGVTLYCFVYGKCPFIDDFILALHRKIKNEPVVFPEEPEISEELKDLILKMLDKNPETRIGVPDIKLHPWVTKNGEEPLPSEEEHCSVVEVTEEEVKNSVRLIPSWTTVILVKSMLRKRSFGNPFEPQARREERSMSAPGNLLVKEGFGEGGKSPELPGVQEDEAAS
The target of assay [12] is Serine/threonine-protein kinase PAK 5 (Homo sapiens) (UniProt Q9P286). In words: Percentage PAK5 activity remaining in the presence of 0.1uM inhibitor.
Serine/threonine-protein kinase PAK 5 (Homo sapiens), sequence (Q9P286 whole entry, looked up): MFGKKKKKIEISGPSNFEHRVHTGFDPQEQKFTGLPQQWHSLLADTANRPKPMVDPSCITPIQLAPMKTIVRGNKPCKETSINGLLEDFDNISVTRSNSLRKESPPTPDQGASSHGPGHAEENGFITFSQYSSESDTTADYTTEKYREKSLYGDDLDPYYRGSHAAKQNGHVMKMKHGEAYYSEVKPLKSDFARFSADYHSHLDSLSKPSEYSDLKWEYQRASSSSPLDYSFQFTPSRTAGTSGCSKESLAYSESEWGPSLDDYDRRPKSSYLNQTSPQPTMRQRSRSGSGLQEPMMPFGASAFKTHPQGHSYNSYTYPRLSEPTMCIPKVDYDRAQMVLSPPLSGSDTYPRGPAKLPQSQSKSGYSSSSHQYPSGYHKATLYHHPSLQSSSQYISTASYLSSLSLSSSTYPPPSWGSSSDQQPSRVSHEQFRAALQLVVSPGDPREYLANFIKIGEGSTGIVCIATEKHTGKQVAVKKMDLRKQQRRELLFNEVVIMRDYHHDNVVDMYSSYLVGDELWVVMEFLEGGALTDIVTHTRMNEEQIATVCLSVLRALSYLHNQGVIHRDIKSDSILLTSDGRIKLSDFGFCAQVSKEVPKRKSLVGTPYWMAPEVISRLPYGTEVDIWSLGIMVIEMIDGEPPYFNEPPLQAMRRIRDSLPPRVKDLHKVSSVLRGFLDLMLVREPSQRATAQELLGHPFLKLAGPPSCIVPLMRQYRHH
The target in assay [13] is Casein kinase II (Homo sapiens) (UniProt P67870+P68400+P19784). Briefly: Percentage CK2 activity remaining in the presence of 0.1uM inhibitor. In kind it is protein-complex assay.
Assay [14] concerns the target Serine/threonine-protein kinase Nek6 (Homo sapiens) (UniProt Q9HC98). Briefly: Percentage NEK6 activity remaining in the presence of 0.1uM inhibitor.
Assay [15] deals with T4, Serine/threonine-protein kinase Sgk1 (Homo sapiens) (UniProt O00141).
T4 sequence (whole entry): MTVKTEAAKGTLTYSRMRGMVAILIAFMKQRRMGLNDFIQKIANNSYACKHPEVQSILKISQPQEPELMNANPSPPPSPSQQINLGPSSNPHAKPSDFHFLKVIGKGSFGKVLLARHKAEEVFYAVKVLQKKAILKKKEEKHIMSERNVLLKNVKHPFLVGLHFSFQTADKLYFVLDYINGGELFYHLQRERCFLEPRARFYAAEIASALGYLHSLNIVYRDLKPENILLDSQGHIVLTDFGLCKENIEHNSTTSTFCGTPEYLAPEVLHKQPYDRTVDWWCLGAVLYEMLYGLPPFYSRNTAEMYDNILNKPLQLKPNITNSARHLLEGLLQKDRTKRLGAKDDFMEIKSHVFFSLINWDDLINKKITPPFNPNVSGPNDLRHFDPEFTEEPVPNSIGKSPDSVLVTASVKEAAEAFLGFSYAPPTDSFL
In words: Percentage SGK1 activity remaining in the presence of 0.1uM inhibitor.

SRSF protein kinase 1 (Homo sapiens), sequence (Q96SB4 whole entry): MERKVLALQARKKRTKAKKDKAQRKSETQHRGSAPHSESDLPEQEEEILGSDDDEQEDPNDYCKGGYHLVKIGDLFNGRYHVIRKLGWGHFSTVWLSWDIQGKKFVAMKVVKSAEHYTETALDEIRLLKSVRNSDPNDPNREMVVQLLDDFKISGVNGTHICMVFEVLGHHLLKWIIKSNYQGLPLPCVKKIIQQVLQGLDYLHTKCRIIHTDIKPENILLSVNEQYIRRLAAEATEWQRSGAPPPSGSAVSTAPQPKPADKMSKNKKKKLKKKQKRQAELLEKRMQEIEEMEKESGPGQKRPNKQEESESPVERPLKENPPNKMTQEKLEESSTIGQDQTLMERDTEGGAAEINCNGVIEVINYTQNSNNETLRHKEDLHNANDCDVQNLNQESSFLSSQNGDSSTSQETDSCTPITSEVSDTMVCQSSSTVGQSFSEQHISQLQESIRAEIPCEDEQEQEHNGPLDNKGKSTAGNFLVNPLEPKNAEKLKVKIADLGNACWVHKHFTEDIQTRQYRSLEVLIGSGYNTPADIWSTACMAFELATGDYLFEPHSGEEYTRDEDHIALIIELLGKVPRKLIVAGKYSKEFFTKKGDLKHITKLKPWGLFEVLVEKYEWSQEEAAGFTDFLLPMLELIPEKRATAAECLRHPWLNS
Serine/threonine-protein kinase pim-2, sequence (Q9P1W9 whole entry, looked up): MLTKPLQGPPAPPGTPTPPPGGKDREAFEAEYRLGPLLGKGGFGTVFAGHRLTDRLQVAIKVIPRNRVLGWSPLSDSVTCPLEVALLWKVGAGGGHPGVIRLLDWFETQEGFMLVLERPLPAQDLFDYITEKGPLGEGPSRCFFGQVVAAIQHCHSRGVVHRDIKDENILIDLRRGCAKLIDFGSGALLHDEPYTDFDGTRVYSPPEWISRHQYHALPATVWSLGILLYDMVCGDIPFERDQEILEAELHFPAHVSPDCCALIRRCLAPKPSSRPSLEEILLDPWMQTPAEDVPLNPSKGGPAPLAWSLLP
Mitogen-activated protein kinase 1 (Homo sapiens), sequence (P28482 whole entry): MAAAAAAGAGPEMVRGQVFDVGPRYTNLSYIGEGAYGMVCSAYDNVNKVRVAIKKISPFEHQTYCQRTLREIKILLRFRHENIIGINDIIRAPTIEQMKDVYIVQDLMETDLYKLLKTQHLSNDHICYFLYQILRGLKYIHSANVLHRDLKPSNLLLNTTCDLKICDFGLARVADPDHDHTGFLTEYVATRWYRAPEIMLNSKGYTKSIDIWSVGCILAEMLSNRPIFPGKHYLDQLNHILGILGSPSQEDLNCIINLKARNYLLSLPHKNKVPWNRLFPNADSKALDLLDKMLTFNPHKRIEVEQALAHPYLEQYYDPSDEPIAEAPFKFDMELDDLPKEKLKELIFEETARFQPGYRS
Serine/threonine-protein kinase Nek6 (Homo sapiens), sequence (Q9HC98 whole entry): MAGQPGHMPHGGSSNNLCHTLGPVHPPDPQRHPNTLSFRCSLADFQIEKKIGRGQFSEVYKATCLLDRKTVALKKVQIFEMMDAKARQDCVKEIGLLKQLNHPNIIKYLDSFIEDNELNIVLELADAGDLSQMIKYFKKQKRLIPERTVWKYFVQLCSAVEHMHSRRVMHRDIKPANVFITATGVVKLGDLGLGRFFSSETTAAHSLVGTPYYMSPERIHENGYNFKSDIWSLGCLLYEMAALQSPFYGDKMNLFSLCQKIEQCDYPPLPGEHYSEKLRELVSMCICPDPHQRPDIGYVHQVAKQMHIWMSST
Serine/threonine-protein kinase Nek7 (Homo sapiens), sequence (Q8TDX7 whole entry, looked up): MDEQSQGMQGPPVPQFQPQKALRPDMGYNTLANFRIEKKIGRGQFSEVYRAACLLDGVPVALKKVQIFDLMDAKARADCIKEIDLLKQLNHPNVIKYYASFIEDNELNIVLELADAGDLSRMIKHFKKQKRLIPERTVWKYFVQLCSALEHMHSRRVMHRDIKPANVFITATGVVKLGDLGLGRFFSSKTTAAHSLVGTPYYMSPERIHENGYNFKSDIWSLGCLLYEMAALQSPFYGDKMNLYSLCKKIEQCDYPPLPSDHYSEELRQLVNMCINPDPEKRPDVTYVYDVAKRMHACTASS
Ribosomal protein S6 kinase alpha-5 (Homo sapiens), sequence (O75582 whole entry, looked up): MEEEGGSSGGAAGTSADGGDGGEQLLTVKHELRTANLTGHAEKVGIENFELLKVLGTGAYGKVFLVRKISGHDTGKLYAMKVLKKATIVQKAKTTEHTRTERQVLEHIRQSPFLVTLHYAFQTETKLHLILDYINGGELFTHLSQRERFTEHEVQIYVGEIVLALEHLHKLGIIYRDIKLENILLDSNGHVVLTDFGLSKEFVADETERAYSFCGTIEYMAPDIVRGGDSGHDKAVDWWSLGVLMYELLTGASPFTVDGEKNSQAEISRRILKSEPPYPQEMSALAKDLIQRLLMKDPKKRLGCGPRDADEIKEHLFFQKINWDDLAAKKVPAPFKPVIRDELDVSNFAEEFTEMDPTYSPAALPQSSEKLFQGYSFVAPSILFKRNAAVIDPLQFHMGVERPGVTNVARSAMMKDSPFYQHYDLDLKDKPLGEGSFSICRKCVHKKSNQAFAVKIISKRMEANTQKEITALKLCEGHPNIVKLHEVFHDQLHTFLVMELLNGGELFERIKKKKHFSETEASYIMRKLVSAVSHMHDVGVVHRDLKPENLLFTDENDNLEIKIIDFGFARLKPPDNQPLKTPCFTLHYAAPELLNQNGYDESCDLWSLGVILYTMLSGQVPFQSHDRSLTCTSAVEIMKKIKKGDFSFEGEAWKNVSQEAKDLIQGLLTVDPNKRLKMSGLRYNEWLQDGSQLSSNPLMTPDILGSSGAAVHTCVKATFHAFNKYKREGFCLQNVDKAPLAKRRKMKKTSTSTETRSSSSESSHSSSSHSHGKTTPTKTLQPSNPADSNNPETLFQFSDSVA

For `Cc1n[nH]c2ccc(-c3cncc(OC[C@@H](N)Cc4c[nH]c5ccccc45)c3)cc12`, the Activity in assay [1] (filed as antagonist) is 15%; in assay [2] (filed as antagonist), 9%; in assay [3], 84%; in assay [4] it was 89%; in assay [5] it was 86%; in assay [6] it was 91%. Moreover, the Activity in [7] is 95%; in assay [8], 64%; on Aurora kinase B, 80%; in assay [9], 92%; in assay [10] (filed as antagonist) it was 29%; in assay [11], 117%. The Activity is 96% in assay [12], 90% in assay [13], 95% in [14] and 53% in [15].

In the case of `O=C(NCCCNc1nc(Nc2cccc(NC(=O)N3CCCC3)c2)ncc1I)c1cccs1`, the Activity is 92% in assay [1]; 84% in assay [2]; 99% in assay [3]; 93% in assay [4]; 77% in [5]; 86% in assay [6]. Further, the Activity in [7] (filed as antagonist) was 46%; in assay [8] it was 71%; on Aurora kinase B (filed as antagonist), 3%; in assay [9] (filed as antagonist), 9%; in assay [10] it was 92%; in assay [11] it was 69%. For the same molecule, the Activity was 81% in assay [12], 93% in assay [13], 98% in [14] and 48% in [15] (filed as antagonist).

Take `CN(C)C[C@@H]1CCn2cc(c3ccccc32)C2=C(C(=O)NC2=O)c2cn(c3ccccc23)CCO1`: the Activity in [1] (filed as antagonist) is 41%; in [2] (filed as antagonist) it was 44%; in [3] it was 104%; in assay [4], 86%; in [5], 97%; in assay [7], 92%. In addition, the Activity in assay [8] is 94%; at Aurora kinase B, 65%; in assay [9] it was 92%; in [10] (filed as antagonist), 37%; in [11] it was 97%; in assay [12], 79%. The Activity in assay [13] was found to be 89%; in assay [14], 93%; in assay [15] it was 66%.

As for `Cn1c2ccccc2c2c3c(c4c5ccccc5n(CCC#N)c4c21)CNC3=O`, the Activity in [2] (filed as antagonist) was 6%; in assay [3], 98%; in assay [4] it was 76%; in assay [5], 65%; in assay [6], 92%; in assay [7] (filed as antagonist) it was 43%. Moreover, the Activity in [8] (filed as antagonist) is 41%; at Aurora kinase B (filed as antagonist) it was 17%; in assay [9] (filed as antagonist), 44%; in assay [10] (filed as antagonist), 3%; in assay [11] (filed as antagonist), 27%; in [12] (filed as antagonist), 6%. The Activity in [13] is 88%; in assay [14], 96%; in assay [15] (filed as antagonist) it was 44%.

For `CC(C)[C@H](CO)Nc1nc(Nc2cccc(Cl)c2)c2ncn(C(C)C)c2n1` [PURVALANOLA], the Activity is 96% in assay [1]; 89% in assay [2]; 105% in assay [3]; 89% in [4]; 14% in assay [5] (filed as antagonist); 79% in assay [6]. Also, the Activity in assay [7] was 94%; in assay [8], 79%; on Aurora kinase B, 89%; in [9] it was 85%; in assay [10], 60%; in [11], 76%. Also, the Activity in [12] amounted to 53%; in assay [13], 99%; in [14], 91%; in assay [15] it was 82%.

Take `Cn1cc(C2=C(c3cn(CCCSC(=N)N)c4ccccc34)C(=O)NC2=O)c2ccccc21`: the Activity is 30% in assay [1] (filed as antagonist); 11% in assay [2] (filed as antagonist); 101% in [3]; 91% in assay [4]; 91% in assay [5]; 82% in assay [6]. Moreover, the Activity came out at 99% in assay [7]; 92% in assay [8]; 80% at Aurora kinase B; 77% in assay [9]; 80% in assay [10]; 104% in assay [11]. Also, the Activity is 79% in assay [12], 99% in assay [13], 97% in [14] and 39% in assay [15] (filed as antagonist).

Take `CC(C)CCN1c2nc(Nc3cc(F)c(O)c(F)c3)ncc2N(C)C(=O)C1C` (stereo not given): the Activity was 100% in assay [1]; 125% in assay [2]; 108% in assay [3]; 106% in assay [4]; 96% in assay [5]; 94% in [6]. Besides, the Activity was 96% in [7]; 85% in assay [8]; 22% at Aurora kinase B (filed as antagonist); 76% in assay [9]; 41% in [10] (filed as antagonist); 92% in assay [11]. The Activity in assay [12] came to 90%; in [13], 97%; in assay [14], 115%; in [15] it was 112%.
